The source of these data is PubChem BioAssay (NCI).

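The compound was tested at five concentrations on cells cultured in 96-well plates, with a 48-hour exposure period. Here, GI50 denotes the concentration required for 50% inhibition of growth. TGI: concentration producing complete growth inhibition.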 Bounds are passed on as bounds.

Among the test systems are ACHN renal; HOP-62 NSCLC; NCI-H460 lung; MOLT-4 leukemia; RXF 393 renal; TK-10 renal; HCT-116 colon; LOX IMVI melanoma; NCI-H226 lung; SN12C renal.
Common to all, as to assay: growth of human tumour cells (NCI), 48 h

`C=C1c2nc3ccccc3n2C=C(c2cccc(Cl)c2)N1Cc1ccc(OC)cc1`: the GI50 with ACHN renal was 1.11 µM; in the assay with HOP-62 NSCLC, 2.35 µM; in the assay on NCI-H460 lung it was 0.416 µM; with MOLT-4 leukemia, 2.57 µM; in the assay on RXF 393 renal, 1.16 µM; in the assay with TK-10 renal, 6.64 µM. For the same molecule, the GI50 in the assay on HCT-116 colon was 0.496 µM; in the assay on LOX IMVI melanoma it was 0.878 µM; in the assay with NCI-H226 lung, 4.5 µM; in the assay with SN12C renal, 1.26 µM. In addition, the TGI with ACHN renal was greater than 100 µM; in the assay on HOP-62 NSCLC, 39.8 µM; in the assay with NCI-H460 lung, 10.5 µM; in the assay on MOLT-4 leukemia it was 11.2 µM; in the assay with RXF 393 renal, 13.1 µM; in the assay on TK-10 renal, greater than 64.9 µM. Besides, the TGI in the assay with HCT-116 colon came out at 11.7 µM; in the assay with LOX IMVI melanoma, 21.5 µM; in the assay with NCI-H226 lung, 30 µM; in the assay on SN12C renal it was 50.3 µM.
As for `NS(=O)(=O)c1ccc(N=Nc2ccc[nH]c2=O)cc1`, the TGI in the assay with ACHN renal, with HOP-62 NSCLC, in the assay on NCI-H460 lung, in the assay on MOLT-4 leukemia, in the assay with RXF 393 renal and in the assay with TK-10 renal was greater than 100 µM each time. Besides, the TGI with HCT-116 colon, in the assay on LOX IMVI melanoma, in the assay with NCI-H226 lung and in the assay on SN12C renal was greater than 100 µM throughout.
On to `CCc1nc(C)cn1C(=O)OCc1nc2nc(Cl)nc(N3CCOCC3)c2[nH]1`, for which the GI50 is 0.854 µM in the assay on ACHN renal; 1.54 µM in the assay with HOP-62 NSCLC; 1.7 µM in the assay with NCI-H460 lung; 1.01 µM with MOLT-4 leukemia; 0.658 µM in the assay on RXF 393 renal; 1.79 µM with TK-10 renal. Further, the GI50 is 0.364 µM in the assay with HCT-116 colon, 1.02 µM with LOX IMVI melanoma, 1.84 µM in the assay with NCI-H226 lung and 1.35 µM with SN12C renal. The TGI with ACHN renal was determined as 2.09 µM; in the assay with HOP-62 NSCLC, 3.56 µM; in the assay with NCI-H460 lung, 3.76 µM; with MOLT-4 leukemia, 3.79 µM; in the assay with RXF 393 renal, 2.01 µM; with TK-10 renal, 3.28 µM. Further, the TGI with HCT-116 colon turned out to be 2.3 µM; in the assay on LOX IMVI melanoma it was 2.33 µM; with NCI-H226 lung, 4.11 µM; in the assay with SN12C renal, 2.74 µM.
Regarding `N#Cc1c2ccccc2c(Cc2ccc3c(c2)OCCOCCOCCOCCOCCO3)c2ccccc12`, the TGI was 21.7 µM in the assay on ACHN renal; 23.6 µM in the assay with HOP-62 NSCLC; 25.1 µM in the assay on NCI-H460 lung; greater than 100 µM with MOLT-4 leukemia; 7.94 µM in the assay on RXF 393 renal; 19.3 µM in the assay on TK-10 renal. Also, the TGI with HCT-116 colon is 21.3 µM; with LOX IMVI melanoma, 22.6 µM; with NCI-H226 lung, 24.3 µM; with SN12C renal it was 22.8 µM.
For the molecule `O=S1(=O)c2ccccc2N(c2ccccc2)c2nnnn21`, the TGI in the assay on ACHN renal is greater than 100 µM; in the assay with HOP-62 NSCLC, 45.9 µM; in the assay with NCI-H460 lung, greater than 100 µM; in the assay on MOLT-4 leukemia, 55.3 µM; with RXF 393 renal, 49.5 µM; in the assay with TK-10 renal it was greater than 100 µM. Further, the TGI was 86.9 µM in the assay on HCT-116 colon, 32.6 µM in the assay with LOX IMVI melanoma, greater than 100 µM in the assay on NCI-H226 lung and 39.1 µM in the assay with SN12C renal.
As to `CC1=CC(=O)N(c2cccc3c(N4C(=O)C=C(C)C4=O)cccc23)C1=O`, the GI50 is 2.78 µM in the assay with ACHN renal; 28.3 µM in the assay with HOP-62 NSCLC; 19.5 µM with NCI-H460 lung; 3.29 µM in the assay with MOLT-4 leukemia; 1.96 µM in the assay on RXF 393 renal; 3.1 µM with TK-10 renal. Further, the GI50 with HCT-116 colon is 1.79 µM; in the assay with LOX IMVI melanoma, 1.8 µM; in the assay with NCI-H226 lung, 23.1 µM; in the assay on SN12C renal it was 8.62 µM. The TGI is 11 µM with ACHN renal; greater than 69.3 µM with HOP-62 NSCLC; 47.7 µM with NCI-H460 lung; 11.1 µM with MOLT-4 leukemia; 4.4 µM in the assay with RXF 393 renal; 7.83 µM with TK-10 renal. The TGI with HCT-116 colon is 4.16 µM; with LOX IMVI melanoma it was 5.56 µM; with NCI-H226 lung, greater than 63.8 µM; in the assay on SN12C renal it was 26.5 µM.
As to `CN(C)NC(=O)/C(=C/c1ccc(Cl)cc1)NC(=O)c1ccccc1`, the TGI with ACHN renal, in the assay with HOP-62 NSCLC, with NCI-H460 lung, with MOLT-4 leukemia, in the assay on RXF 393 renal and in the assay with TK-10 renal was greater than 100 µM each time. Besides, the TGI in the assay on HCT-116 colon, in the assay on LOX IMVI melanoma, with NCI-H226 lung and with SN12C renal was greater than 100 µM in each case.
Take `C/C=C(\N=C=S)C(=O)OC1C(COC(C)=O)OC([C@]2(O)CC(=O)C(=N)C(C(=O)O)=C2O)C(O)C1OC1CC(OC)C(O)([C@@H](C)OC(=O)[C@@H](C)CC)C(C)O1` (stereo not given in full): the TGI was found to be 33.1 µM in the assay on ACHN renal; 45.7 µM in the assay on HOP-62 NSCLC; 47.5 µM with NCI-H460 lung; 14 µM in the assay with MOLT-4 leukemia; 15.5 µM in the assay with RXF 393 renal; 31.4 µM with TK-10 renal. The TGI with HCT-116 colon turned out to be 21.9 µM; in the assay on LOX IMVI melanoma, 17.2 µM; in the assay with NCI-H226 lung, 39.5 µM; in the assay on SN12C renal, 40 µM.
